Measurements published in patent EP0719267B1, “SECOND MESSENGER CELL SIGNALING INHIBITORS” (CELL THERAPEUTICS, INC., priority 1993, dated 1994).
“Also recorded” adds a separate entry of the source.

What was measured:
[1] = system: IL-2 (alpha chain CD25) receptor; experiment: IL-2 receptor expression on anti-CD3 stimulated splenocytes (flow cytometry); assay type: cell-based, mouse; settings: anti-CD3 1 µg/ml, 24 hours, 1 µM
Protocol: This investigation illustrates IL-2 (alpha chain CD25) receptor expression on mouse splenoyctes. The IL-2 receptor is not expressed on resting T-cells, but is rapidly-induced by certain stimulants, e.g. antigen recognition or treatment with ConA or antibodies to CD3 (anti-CD3). IL-2-dependent proliferation requires IL-2 receptor expression. […] 49 (1 µM). Following overnight incubation, the splenocytes were stained with a fluoresceinated anti-IL-2 receptor antibody and fluorescence measured by flow cytometry. Figures 5A and 5B are frequency histograms of measurements for 20,000 cells per sample.
In another assay, inventive compound no. […] Murine splenocytes were activated for 24 hours with anti-CD3 (1 µg/ml), stained with a fluorescent antibody to CD25 and analyzed by flow cytometry.

[2] = system: human foreskin fibroblasts, HS68; experiment: Prostaglandin E2 release from IL-1α-stimulated fibroblasts; assay type: cell-based; settings: 100 pg/ml IL-1α, 24 hours
Protocol: Figure 61 illustrates that inventive compound no. […] Cells were stimulated with 100 pg/ml IL-1α. Inventive compound no. 45 was added 1 hour prior to stimulation. Supernatants were harvested 24 hours later and levels of PGE2 were analyzed by commercial immunoassay. The results are reported in figure 61 and confirm no effect on PGE2 release.

[3] = system: murine cytotoxic T-cell line, CT6; experiment: Cytokine-induced proliferation of the cytotoxic T-cell line CT6 / CT-6.1; assay type: cell-based; settings: for IC50: Mus musculus, T-cell, CT-6.1 cells; for inhibition of direct IL-2-induced proliferation: added one hour prior to IL-2, thymidine at 48 hours
Outline: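 IL-2-dependent murine CT6/CT-6.1 cells deprived of IL-2 (24 h or overnight), then stimulated with IL-2 (15 U/ml or 20 ng/ml), IL-4 (50 ng/ml) or IL-7 (25 ng/ml) with compound at various concentrations. Proliferation by ³H-TdR incorporation (4 h pulse from 20 h, or at 48 h); viable counts up to 8 days with 2 µM compound.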

murine splenocytes = experiment: Anti-CD3 priming followed by IL-2 restimulation of splenocytes; assay type: cell-based; settings: 1 µM
Protocol: 53A. […] The cells were pulsed with ^3H-TdR for 4 hours and harvested and incorporation of ^3H-TdR determined.

[4] = system: murine splenocyte proliferation; experiment: Splenocyte (B cell) proliferation stimulated by anti-mu/anti-IgM and IL-4; assay type: cell-based; settings: Mus musculus, anti-IgM antibodies (10 µg/ml) and murine IL-4 (12.5 ng/ml)
Protocol: This example illustrates inhibitive effects of compounds nos. 27 and 28 on murine splenocyte proliferation stimulated by anti-mu ([…]) and interleukin-4 (IL-4, 12.5 ng/ml). This in vitro assay, described above, is indicative of immune-suppressive/autoimmune treatment assay emphasizing humoral or B cell immune response. The inventive compound was added to the cells at the doses indicated two hours prior to activation with anti-mu and IL-4. Both compounds nos. 27 and 28 inhibited splenocyte proliferation in a dose-response manner. IC50 values for compounds nos. Background counts were less than 200 cpm.
In figure 57, results shown illustrate that inventive compound no. 45 inhibits B cell proliferation. Murine splenocytes were stimulated with anti-IgM antibodies (10 µg/ml) and murine IL-4 (12.5 ng/ml). Cells were pulsed with ^3HTdR at 44 hours, harvested 4 hours later, and the incorporation of ^3H-TdR was determined by liquid scintillation.

ICAM-1 = experiment: ICAM expression on TNF-stimulated HUVEC (flow cytometry); assay type: cell-based, human
Protocol: Assay results reported in figures 63A and 63B, illustrate that inventive compound no. […] HUVEC were stimulated with TNFα (20 ng/ml) for 5 hours and stained using fluorescent antibodies to ICAM-1 or VCAM-1. Cell surface expression was analyzed by flow cytometry. All values were normalized to the peak mean fluorescence of the positive control (=100%). Average levels of induction using TNFα- stimulation were 20-fold higher for ICAM-1 and over 50-fold higher for VCAM-1 from that of nonstimulated controls, as shown in figures 63 and 63B.
Figures 73A and 73B illustrate inhibition by inventive compound no. 58 of VCAM or ICAM expression, respectively, in HUVEC activated by TNF. Cells were stimulated for 8 hours in the presence or absence of inventive compounds and stained with fluorescent antibodies to VCAM or ICAM and analyzed by flow cytometry.

C57BL/6 splenocytes = experiment: Antigen specific anergy induction (splenocytes with 2PK3 B cell tumor, restimulation); assay type: cell-based, murine
Protocol: A B cell tumor, 2PK3 (H-2d) was used as a stimulating cell for C57BL/6 splenocytes (H-2b), a responding cell. Mixed cultures of B-cell tumor and splenocytes were incubated for 5 days with and without 1 µM of compound no. 45. After 5 days, the cells were washed and resuspended with either media, the original antigen (2PK3) or anti-CD3. Tritiated thymidine was added to the resulting suspensions and thymidine incorporation measured 24 hours later. As illustrated, culture treated with inventive compound no. […] However, cultures incubated with inventive compound no. […] Thus, C57BL/6 splenocytes were inhibited from responding to an original antigen by the inventive compound used in the pre-incubation step.
As shown in figures 56A and 56B, inventive compound no. 45 also induces antigen specific T-cell anergy. Procedurally, murine splenocytes were stimulated with an alloantigen target cell line 2PK3 in the presence or absence of compound no. 45 (1 µM; approximate IC50). Following 5 days in culture, the cells were washed, re-cultured and restimulated with the original priming antigen and anti-CD3 monoclonal antibody. […] 45 during the five day primary culture. […] Although cells pretreated with inventive compound no. 45 could respond normally to polyclonal stimulation, those that were challenged with the alloantigen could not. Therefore, compound no. 45 induced a specific state of unresponsiveness or anergy to the alloantigen.

[5] = system: human smooth muscle cells (SMC); experiment: Chemotaxis of smooth muscle cells to PDGF (Boyden chamber); assay type: cell-based; settings: eight hours
Protocol: Figure 71 illustrates that inventive compound no. […] In the assay, cells were seeded in a Boyden chamber with or without various concentrations of inventive compound no. 58. Eight hours later, the number of cells that had migrated were scored visually. Inventive compound no.

SMILES | CD-25 receptor upregulation [1] | prostaglandin E2 release [2] | proliferation measured by cell number ([3]; CT6.1 cells, IL-2, 2 µM, up to 8 days) | reversibility of the effect ([3]; CT6.1 cells, washed on day 4) | IC50 ([3]; IL-2 (20 ng/ml), fig. 46) [nM] | IC50 ([3]; IL-2 (20 ng/ml), fig. 48) [nM] | IC50 ([3]; IL-4 (50 ng/ml)) [nM] | IC50 ([3]; IL-7 (25 ng/ml)) [nM] | inhibition of direct IL-2-induced proliferation [3] | proliferation of anti-CD3 primed splenocytes, compound present with IL-2 (murine splenocytes) | response to IL-2 after compound present during anti-CD3 incubation (murine splenocytes) | IC50 [4] [nM] | ICAM-1 cell surface expression (ICAM-1; TNFα (20 ng/ml), 5 hours) | response to anti-CD3 after 5 days culture with compound (C57BL/6 splenocytes; 1 µM) | response to original/priming antigen 2PK3 after 5 days culture with compound (C57BL/6 splenocytes; 1 µM) | IC50 (C57BL/6 splenocytes; Mus musculus, Splenocyte, alloantigen target cell line 2PK3, read-out: approximate IC50) [nM] | ICAM expression (ICAM-1; TNF, 8 hours) | PDGF-directed chemotaxis [5]
CCCCCCCCNCC(O)CCCCCCCCCn1c(=O)c2c(ncn2C)n(C)c1=O (stereo not shown) [compound no. 45] | did not inhibit CD-25 (p55) receptor upregulation by anti-CD3 | did not have an effect on prostaglandin E2 release | inhibits proliferation as measured by cell number | reversible even after 4 days in culture | ~800 | < 1000 | < 1000 | < 1000 | inhibited direct IL-2-induced CT6 proliferation | proliferation was inhibited | did not block the splenocyte's ability to respond to IL-2 | 1200 | inhibited adhesion receptor expression on HUVEC | responded equivilantly to anti-CD3; also recorded: polyclonal T-cell response to anti-CD3 was not affected | decreased response to primary antigen, 2PK3; also recorded: secondary response to the priming antigen was inhibited | ~1000 | – | –
CCCCCCCCCCCCNCC(O)CCCCCCCCCn1c(=O)c2c(ncn2C)n(C)c1=O (stereo not shown) [compound no. 50, 1-(11-Dodecylamino-10-hydroxyundecyl)-3,7-dmethylxanthine] | – | – | – | – | – | – | – | – | inhibited direct IL-2-induced CT6 proliferation | – | – | – | – | – | – | – | – | –
COc1cc(CNCC(O)CCCCCCCCCn2c(=O)c3c(ncn3C)n(C)c2=O)cc(OC)c1OC (stereo not shown) [compound no. 58, 1-[11-(3,4,5-Trimethoxybenzylamino)-10-hydroxyundecyl]-3,7-dimethylxanthine] | – | – | – | – | – | – | – | – | – | – | – | – | – | – | – | – | inhibition | had no effect on PDGF-directed SMC chemotaxis
